Laboratory results as given in patent US20250367282A1, “POLYCATION CARRIER PARTICLE” (ALLARTA LIFE SCIENCE INC., priority 2022, published 2025).

Legend:
[1] = tested on: RAW 264.7 macrophage cells; format: cell-based
Experimental: The cells were cultured for 3 days to reach about 80% confluence. The media was removed from the wells and the cells were washed once with about 250 μL of PBS. […] As controls, cells were exposed to a) 100 μL of serum-free DMEM, b) 100 µL of 10% v/v DMSO in serum-free DMEM, and c) 100 μL of 0.1 wt. % OVA-FITC in serum-free DMEM, were added to the cells. The cells were incubated for 4 h at 37° C., 5% CO2 in a humidified atmosphere. […] After 15 min, the paraformaldehyde solution was removed, the cells were washed twice with about 250 μL of PBS, and then 100 μL of PBS was added to the fixed cells. The cells were then imaged by brightfield and confocal fluorescence microscopy

[2] = tested on: RAW 264.7 macrophage cells; assay: MTS cytotoxicity assay; format: cell-based; conditions: 4 hours incubation; particles 0.1 wt. %, DMSO 10% v/v, serum-free DMEM; mean±standard deviation
Experimental: The cells were cultured for 3 days to reach around 80% confluence. The media was removed from the wells and the cells were washed once with about 250 μL of PBS. […] As controls, 100 μL of serum-free DMEM supplemented with 1% penicillin-streptomycin, 100 μL of 10% v/v DMSO in serum-free DMEM supplemented with 1% penicillin-streptomycin, 100 μL of 0.1 wt. % OVA-FITC in serum-free DMEM supplemented with 1% penicillin-streptomycin, and 100 μL of 0.1 wt. % HD particles suspensions in serum-free DMEM supplemented with 1% penicillin-streptomycin were added to the cells. The cells were incubated for 4 h at 37° C., 5% CO2 in a humidified atmosphere. 20 μL of MTS solution (Promega) was added to the wells and mixed. The plates were shaken at a horizontal distance of 1 mm for 10 seconds and read at 490 nm using a Biotek™ 800 TS absorbance reader. Statistical analysis was performed on the data using one-way analysis of variance (ANOVA) with a Bonferroni post hoc analysis. Significance level was set at p<0.05.

Compound: C[S+](C)[O-] [DMSO, dimethyl sulfoxide]
- cell morphology by brightfield microscopy [1]: rounded cell morphology and signs of apoptosis
- mean viability of RAW 264.7 cells [2]: 64±12%
